Test results as given in PubChem BioAssay AID1963849 (Molecular Pharmacology Branch, DTP, NCI, 2024).

System: 299254-011-R-J1-PDC complex spheroid viability
Assay: Anticancer human tumor 299254-011-R-J1-PDC patient-derived melanoma cell line growth inhibition [POLQ]
Conditions: for IC50: curve of first compound; for viability, T/C: stronger effect = lower value
Method: Multicellular complex tumor spheroid response to Polymerase (POL) inhibitors (novobiocin, ART-558, RP6685) in combination with a variety of drugs and investigational agents in selected tumor cell lines
The POL inhibitors (novobiocin, ART-558, and RP6685) were evaluated both individually and in combination with standard of care and investigational anticancer small molecules within a complex spheroid model of solid tumors. . Complex spheroids include a stromal component modeled by human endothelial cells (HUVEC) and fibroblasts modeled by human mesenchymal stem cells (MSCs). The concentration ranges selected for each drug and investigational agent were based upon clinically achievable concentrations if the clinical Cmax of the agent was known.
Compounds. The drugs and investigational agents: novobiocin (NSC847541), ART-558 (NSC835418), RP-6685 (NSC848927), peposertib (NSC802822), ceralasertib (NSC780249), elimusertib (NSC800525), camonsertib (NSC841442), AZD-1390 (NSC803789), olaparib (NSC753686), talazoparib (NSC767125), rucaparib (NSC756644), sotorasib (NSC818433), MRTX-1133 (NSC836407), SN-38 (NSC673596), topotecan (NSC609699), epotoside (NSC141540), doxorubicin (NSC123127), gemcitabine (NSC613327), 5-fluorouracil (NSC19893), paclitaxel (NSC125973), vemurafenib (NSC761431), MSA-2 (NSC828583), SN-011 (NSC837082), adavosertib (NSC754352), prexasertib (NSC758257), carboplatin (NSC241240) and oxaliplatin (NSC266046), were obtained from the National Cancer Institute (NCI) Developmental Therapeutics Program Chemical Repository (21). The FDA-approved anticancer drug set is available from the Developmental Therapeutics Program at https://dtp.cancer.gov/organization/dscb/obtaining/. […] The stock solutions were prepared in dimethyl sulfoxide (DMSO, Sigma-Aldrich, St. Louis, MO, cat. D2650), except for the platinum compounds which were prepared in saline (Quality Biological, Gaithersburg, MD, cat. 114-055-101), at 800-fold the tested concentration and stored at -70 degrees C prior to their use. All drugs and investigational agents were tested over a range starting from a high concentration at or near the clinical Cmax and decreasing in half-log increments. If the clinical Cmax for an agent had not been determined, the highest concentration tested was 10 microM, except for SN-38, which was tested at a high concentration of 1 microM.
Cell Culture. All cells were maintained in an incubator at 37 degrees C and 5% CO2 with 95% humidity. The PDC lines were cultured according to standard operating procedures established by the NCI PDMR (https://pdmr.cancer.gov). Table 3 of the manuscript, lists the cell lines along with the number of the three cell types plated to form the mct-spheroids and media for tumor cell growth. After thawing, all PDC lines, except 997537-175-T-J1-PDC and 415267-285-R-J2-PDC, were cultured in Matrigel-coated flasks prepared with a working solution of 1X Ham's F-12 nutrient mix, without supplementation (Thermo Fisher Scientific, cat. 11765054), 100 U/mL penicillin-streptomycin (Thermo Fisher Scientific, cat. 15140122), and 2.5% Matrigel (Corning Inc., Corning, NY, cat. 354248) for the first three passages. The two PDC lines 997537-175-T-J1-PDC and 415267-285-R-J2-PDC were cultured on uncoated flasks. The 857933-349-R-J2-PDC line was cultured in 6C/Colon 1B media containing advanced DMEM/F-12 (Thermo Fisher Scientific, cat. 12634028), 10 mM HEPES (Thermo Fisher Scientific, cat. 15630080), 1X GlutaMAX supplement (Thermo Fisher Scientific, cat. 35050061), 0.1 mg/mL primocin (InvivoGen, San Diego, CA, cat. ant-pm-2), 10% defined fetal bovine serum, heat inactivated (HyClone Laboratories Inc., Logan, UT, cat. SH30070.03HI), 50% L-WRN conditioned media (ATCC, cat. CRL-3276), 1.25 mM N-Acetyl-L-cysteine (Sigma-Aldrich, cat. A9165), 10 mM nicotinamide (Sigma-Aldrich, cat. N0636), 1X B-27 supplement (Thermo Fisher Scientific, cat. 17504044), 1X N-2 supplement (Thermo Fisher Scientific, cat. […]

[1] = second compound 0.0316 µM, first compound 0.0316 µM
[2] = second compound 0.0316 µM, first compound 0.1 µM
[3] = second compound 0.0316 µM, first compound 0.316 µM
[4] = second compound 0.0316 µM, first compound 1 µM
[5] = second compound 0.0316 µM, first compound 3.16 µM
[6] = second compound 0.0316 µM, first compound 10 µM
[7] = second compound 0.1 µM, first compound 0.0316 µM
[8] = second compound 0.1 µM, first compound 0.1 µM
[9] = second compound 0.1 µM, first compound 0.316 µM
[10] = second compound 0.1 µM, first compound 1 µM
[11] = second compound 0.1 µM, first compound 3.16 µM
[12] = second compound 0.1 µM, first compound 10 µM
[13] = second compound 0.316 µM, first compound 0.0316 µM
[14] = second compound 0.316 µM, first compound 0.1 µM
[15] = second compound 0.316 µM, first compound 0.316 µM
[16] = second compound 0.316 µM, first compound 1 µM
[17] = second compound 0.316 µM, first compound 3.16 µM
[18] = second compound 0.316 µM, first compound 10 µM
[19] = second compound 1 µM, first compound 0.0316 µM
[20] = second compound 1 µM, first compound 0.1 µM
[21] = second compound 1 µM, first compound 0.316 µM
[22] = second compound 1 µM, first compound 1 µM
[23] = second compound 1 µM, first compound 3.16 µM
[24] = second compound 1 µM, first compound 10 µM
[25] = second compound 3.16 µM, first compound 0.0316 µM
[26] = second compound 3.16 µM, first compound 0.1 µM
[27] = second compound 3.16 µM, first compound 0.316 µM
[28] = second compound 3.16 µM, first compound 1 µM
[29] = second compound 3.16 µM, first compound 3.16 µM
[30] = second compound 3.16 µM, first compound 10 µM
[31] = second compound 10 µM, first compound 0.0316 µM
[32] = second compound 10 µM, first compound 0.1 µM
[33] = second compound 10 µM, first compound 0.316 µM
[34] = second compound 10 µM, first compound 1 µM
[35] = second compound 10 µM, first compound 3.16 µM
[36] = second compound 10 µM, first compound 10 µM
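Note: spheroids exposed to drugs for one week before measurement.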
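Throughout, for viability, T/C: percent viability relative to DMSO vehicle control taken as 100%.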

`COc1ccc([C@@H](O)c2cc(-c3ncnc4cc(N5CCOCC5)ccc34)c(F)cc2Cl)nn1` + Nc1ccc(C#CCN(C(=O)Cc2ncc(C(F)(F)F)cc2C(F)(F)F)c2ccc(F)cc2)nn1 gave an IC50 (second compound 0.0316 µM) of over 10000 nM, an IC50 (second compound 0.1 µM) of 9370 nM and an IC50 (second compound 0.316 µM) of over 10000 nM. The IC50 (second compound 1 µM) was 9000 nM, the IC50 (second compound 3.16 µM) was over 10000 nM and the IC50 (second compound 10 µM) was over 10000 nM. The viability, T/C [1] was 116%, the viability, T/C [2] was 112% and the viability, T/C [3] was 98%. For the same compound, the viability, T/C [4] was 105%, the viability, T/C [5] was 91.5% and the viability, T/C [6] was 50%. It also gave a viability, T/C [7] of 94.3%, a viability, T/C [8] of 89.4% and a viability, T/C [9] of 100%. The viability, T/C [10] was 105%, the viability, T/C [11] was 105% and the viability, T/C [12] was 47%. It also gave a viability, T/C [13] of 106%, a viability, T/C [14] of 108% and a viability, T/C [15] of 105%. It also gave a viability, T/C [16] of 104%, a viability, T/C [17] of 88.8% and a viability, T/C [18] of 54.3%. For the same compound, the viability, T/C [19] was 102%, the viability, T/C [20] was 98.5% and the viability, T/C [21] was 105%. The viability, T/C [22] was 106%, the viability, T/C [23] was 106% and the viability, T/C [24] was 44.4%. For the same compound, the viability, T/C [25] was 103%, the viability, T/C [26] was 101% and the viability, T/C [27] was 96.7%. The viability, T/C [28] was 96%, the viability, T/C [29] was 81.9% and the viability, T/C [30] was 54.4%. The viability, T/C [31] was 99.1%, the viability, T/C [32] was 93.5% and the viability, T/C [33] was 91.1%. The viability, T/C [34] was 86.4%, the viability, T/C [35] was 80.4% and the viability, T/C [36] was 54%.
Compound `CC1COCCN1c1cc(C2(O)CC3CCC(C2)O3)c2cnn(-c3ccn[nH]3)c2n1` (centres undefined) + Cc1cccc(N(C)C(=O)C2C(O)CCN2c2nc(C)cc(C(F)(F)F)c2C#N)c1 has an IC50 (second compound 0.0316 µM) of 182 nM, an IC50 (second compound 0.1 µM) of 224 nM and an IC50 (second compound 0.316 µM) of 234 nM. The IC50 (second compound 1 µM) was 153 nM, the IC50 (second compound 3.16 µM) was 169 nM and the IC50 (second compound 10 µM) was 81.5 nM. The viability, T/C [1] was 76.1%, the viability, T/C [2] was 65.7% and the viability, T/C [3] was 35.2%. For the same compound, the viability, T/C [4] was 21.1%, the viability, T/C [5] was 17.5% and the viability, T/C [6] was 10.6%. For the same compound, the viability, T/C [7] was 93.9%, the viability, T/C [8] was 69.5% and the viability, T/C [9] was 39.1%. For the same compound, the viability, T/C [10] was 27.4%, the viability, T/C [11] was 17.4% and the viability, T/C [12] was 9.48%. The viability, T/C [13] was 81.4%, the viability, T/C [14] was 64.7% and the viability, T/C [15] was 46.5%. It also gave a viability, T/C [16] of 22.8%, a viability, T/C [17] of 18.6% and a viability, T/C [18] of 7.95%. The viability, T/C [19] was 99.5%, the viability, T/C [20] was 56.8% and the viability, T/C [21] was 36%. It also gave a viability, T/C [22] of 24.1%, a viability, T/C [23] of 15.5% and a viability, T/C [24] of 10.2%. For the same compound, the viability, T/C [25] was 97.1%, the viability, T/C [26] was 61.8% and the viability, T/C [27] was 35.5%. The viability, T/C [28] was 22.1%, the viability, T/C [29] was 14.2% and the viability, T/C [30] was 10.6%. For the same compound, the viability, T/C [31] was 73.5%, the viability, T/C [32] was 44.5% and the viability, T/C [33] was 27.2%. The viability, T/C [34] was 20.2%, the viability, T/C [35] was 14.2% and the viability, T/C [36] was 9.04%.
